Test results: PubChem BioAssay (NCI)
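Dose response: 5 concentrations. Exposure: 48 h. Format: 96-well plates. Endpoint: linear interpolation; highest concentration if not reached. Abbreviation: GI50, concentration required for 50% inhibition of growth. TGI denotes the concentration required for complete inhibition of growth.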

Columns and labels:
Assay in all cases: DTP human tumour cell line panel, 48 h
[1] = tested on: DU-145 prostate
[2] = tested on: UACC-62 melanoma
[3] = tested on: MOLT-4 leukemia
[4] = tested on: SNB-19 CNS
[5] = tested on: MDA-MB-231 breast
[6] = tested on: COLO 205 colon
[7] = tested on: A549 NSCLC
[8] = tested on: SW-620 colon
[9] = tested on: MCF7 breast
[10] = tested on: HCC-2998 colon
[11] = tested on: TK-10 renal
[12] = tested on: SNB-75 CNS
[13] = tested on: BT-549 breast
[14] = tested on: UACC-257 melanoma
[15] = tested on: HL-60(TB) leukemia
[16] = tested on: RPMI-8226 leukemia
[17] = tested on: CCRF-CEM leukemia
[18] = tested on: SF-539 CNS
[19] = tested on: HCT-116 colon
[20] = tested on: HOP-92 NSCLC
[21] = tested on: SF-268 CNS
[22] = tested on: OVCAR-4 ovarian
[23] = tested on: MDA-MB-468 breast
[24] = tested on: NCI-H23 lung
[25] = tested on: OVCAR-3 ovarian
[26] = tested on: 786-0 renal
[27] = tested on: HOP-62 NSCLC
[28] = tested on: OVCAR-8 ovarian
[29] = tested on: PC-3 prostate
[30] = tested on: HT29 colon
[31] = tested on: LOX IMVI melanoma
[32] = tested on: NCI-H522 lung
[33] = tested on: MALME-3M melanoma
[34] = tested on: UO-31 renal
[35] = tested on: KM12 colon
[36] = tested on: SF-295 CNS
[37] = tested on: HCT-15 colon
[38] = tested on: SK-MEL-28 melanoma
[39] = tested on: EKVX NSCLC
[40] = tested on: SK-MEL-2 melanoma
[41] = tested on: SK-MEL-5 melanoma
[42] = tested on: NCI-H460 lung
[43] = tested on: CAKI-1 renal
[44] = tested on: SK-OV-3 ovarian
[45] = tested on: HS 578T breast
[46] = tested on: OVCAR-5 ovarian
[47] = tested on: K-562 leukemia
[48] = tested on: A498 renal
[49] = tested on: IGROV1 ovarian
[50] = tested on: SN12C renal
[51] = tested on: NCI-H226 lung
[52] = tested on: T-47D breast
[53] = tested on: M14 melanoma
[54] = tested on: NCI/ADR-RES ovarian
[55] = tested on: RXF 393 renal
[56] = tested on: ACHN renal
[57] = tested on: MDA-MB-435
[58] = tested on: U251 CNS

In the case of `Cn1cc(-c2cc(N)n3nc(-c4cn(C)c5ncc(Br)cc45)cc3n2)c2cc(Br)cnc21`, the GI50 [1] is reported as 2.54 µM, the TGI [1] is reported as 6.77 µM and the GI50 [2] is reported as 1.58 µM. For the same compound, the TGI [2] was 3.03 µM, the GI50 [3] was 1.53 µM and the TGI [3] was 4.37 µM. The GI50 [4] was 1.95 µM, the TGI [4] was 4.05 µM and the GI50 [5] was 2.59 µM. The TGI [5] was 9.79 µM, the GI50 [6] was 4.29 µM and the TGI [6] was 31.8 µM. The GI50 [7] was 2.07 µM, the TGI [7] was 4.97 µM and the GI50 [8] was 1.77 µM. The TGI [8] was 3.59 µM, the GI50 [9] was 1.72 µM and the TGI [9] was 4.12 µM. The GI50 [10] was 1.73 µM, the TGI [10] was 3.44 µM and the GI50 [11] was 1.79 µM. The TGI [11] was 4.03 µM, the GI50 [12] was 8.48 µM and the TGI [12] was 26.3 µM. The GI50 [13] was 3.38 µM, the TGI [13] was 14.1 µM and the GI50 [14] was 2.28 µM. For the same compound, the TGI [14] was 5.33 µM, the GI50 [15] was 2 µM and the TGI [15] was 4.94 µM. The GI50 [16] was 2.23 µM, the TGI [16] was 5.87 µM and the GI50 [17] was 1.43 µM. For the same compound, the TGI [17] was 3.72 µM, the GI50 [18] was 1.71 µM and the TGI [18] was 3.18 µM. The GI50 [19] was 1.72 µM, the TGI [19] was 3.3 µM and the GI50 [20] was 1.71 µM. It also gave a TGI [20] of 6.42 µM, a GI50 [21] of 7.52 µM and a TGI [21] of 38 µM. The GI50 [22] was 2.11 µM, the TGI [22] was 4.57 µM and the GI50 [23] was 1.54 µM. It also gave a TGI [23] of 2.95 µM, a GI50 [24] of 1.92 µM and a TGI [24] of 3.76 µM. It also gave a GI50 [25] of 1.72 µM, a TGI [25] of 3.21 µM and a GI50 [26] of 1.77 µM. For the same compound, the TGI [26] was 3.46 µM, the GI50 [27] was 2.36 µM and the TGI [27] was 6.63 µM. For the same compound, the GI50 [28] was 2.49 µM, the TGI [28] was 6.67 µM and the GI50 [29] was 2.49 µM. It also gave a TGI [29] of 8.41 µM, a GI50 [30] of 1.8 µM and a TGI [30] of 3.44 µM. The GI50 [31] was 1.59 µM, the TGI [31] was 2.96 µM and the GI50 [32] was 2.27 µM. For the same compound, the TGI [32] was 5.52 µM, the GI50 [33] was 1.93 µM and the TGI [33] was 3.49 µM. It also gave a GI50 [34] of 6.81 µM, a TGI [34] of 22.1 µM and a GI50 [35] of 1.83 µM. The TGI [35] was 5.81 µM, the GI50 [36] was 1.86 µM and the TGI [36] was 4.02 µM. It also gave a GI50 [37] of 1.59 µM, a TGI [37] of 3.24 µM and a GI50 [38] of 1.77 µM. The TGI [38] was 3.35 µM, the GI50 [39] was 2.18 µM and the TGI [39] was 8.92 µM. The GI50 [40] was 2.01 µM, the TGI [40] was 4.4 µM and the GI50 [41] was 3.95 µM. The TGI [41] was 16.8 µM, the GI50 [42] was 1.91 µM and the TGI [42] was 3.89 µM. It also gave a GI50 [43] of 3.68 µM, a TGI [43] of 15.4 µM and a GI50 [44] of 19.1 µM. The TGI [44] was 36.4 µM, the GI50 [45] was 3.19 µM and the TGI [45] was 15.7 µM. It also gave a GI50 [46] of 10.5 µM, a TGI [46] of 33.9 µM and a GI50 [47] of 2.34 µM. The TGI [47] was 8.45 µM, the GI50 [48] was over 100 µM and the TGI [48] was over 100 µM. The GI50 [49] was 4.65 µM, the TGI [49] was 18.5 µM and the GI50 [50] was 10.6 µM. It also gave a TGI [50] of 34.9 µM, a GI50 [51] of 8.32 µM and a TGI [51] of 26.4 µM. It also gave a GI50 [52] of 2.35 µM, a TGI [52] of 9.43 µM and a GI50 [53] of 1.65 µM. The TGI [53] was 3.16 µM, the GI50 [54] was 2.04 µM and the TGI [54] was 4.7 µM. The GI50 [55] was 2.62 µM, the TGI [55] was 6.9 µM and the GI50 [56] was 1.96 µM. The TGI [56] was 3.72 µM, the GI50 [57] was 1.95 µM and the TGI [57] was 4.29 µM. For the same compound, the GI50 [58] was 1.93 µM and the TGI [58] was 3.89 µM.
